The results in this text go back to US6875775B2, “Triphenylalkene derivatives and their use as selective estrogen receptor modulators” (Hormos Medical Oy LTD, priority 1999, dated 2005).

Read-outs that look alike come from different tables or passages of the source.

The test system of series [1] is MCF-7 cells. Nature of the series: cells. In kind it is cell-based. As to conditions: for cytotoxicity at 10 µM / inhibition at 1 µM / Emax: Homo sapiens, MCF7, 96 h; for cytotoxicity at 10 µM / Maximal Cell Kill (% fraction of dead cells): 10 μmol/l; for cytotoxicity at 10 µM: read-out: Maximal Cell Kill (% fraction of dead cells); for inhibition at 1 µM: read-out: Antagonism at 1 μM (% of full antagonism); for Emax: read-out: Maximal Agonism (% of E2); for Killing of MCF-7 cells at the highest investigated concentration (in words): 10 μM, compounds with weak hormonal activity. As to the method:
Evaluation of Estrogenic and Antiestrogenic Properties of Compounds in MCF-7 Cell Growth Experiments in Vitro
For experiments involving hormone or anti-hormone treatment, the cells in exponential growth phase were precultivated in the absence of estradiol for one day. […] After the incubation period the medium was removed. The exposure to study drugs was started immediately by adding fresh medium with 5% stripped serum. Half of the cells were grown with estradiol, half without estradiol. Study compounds (dissolved in ethanol in 0.01 M concentration and diluted with the growth medium as appropriate) were added. The final concentrations of the compounds were 1, 10, and 100 nM, and 1 and 10 μM. The cells were incubated for four days.
This method allows evaluation of estrogenicity based on the ability of the compounds to stimulate the growth of the estrogen-dependent cells in the absence of estradiol.
Estrogenicity was estimated by comparing the maximal growth stimulus (at any concentration) of study compound as percent from growth stimulus by estradiol (100% stimulus). […] At high concentrations molecules may also show toxicity. Toxicity was estimated as the fraction of dead cells (i.e. 100% means that all cells have died during the exposure).

The nature of series [2]: Overall hormonal profile summarised from Tables 2, 3 and 4.
Series [3] concerns ovariectomized (OVX) rats. Briefly: Serum cholesterol level in ovariectomized (OVX) rats after 4 weeks dosing. In kind it is in vivo, rat. As to conditions: OVX rats, Table 4. The source says: Estimation of Effects to Cholesterol and Bone
Compounds were given p.o. to female rats for 4 or 5 weeks daily. At the end a blood sample was taken. Serum was separated by centrifugation and frozen until analyzed for total amount of cholesterol. Bone samples were taken from vertebra and tibia. Physical strength of the bones was studied as described by Peng et al, 1994.

The subject of series [4] is DMBA-induced rat mammary gland cancer. Briefly: Antitumor activity in DMBA-induced rat mammary gland cancer model. As to conditions: 3 mg/kg p.o. daily for 5 weeks. In kind it is in vivo. The method, then: Estimation of Antitumor Activity in Vivo
Antitumor activity was estimated by using DMBA (dimethylbenz[a] anthracene) model. One single peroral dose of DMBA (12 mg) initiates mammary gland carcinogenesis. New compounds were administered for 5 weeks when palpable tumors appeared. Size of the tumors and number of new tumors were carefully estimated once a week until termination. The model has been described in detail by Kangas et al, 1986. The growth of the tumors was measured once a week. All tumors were classified according to their growth properties to progressing, stable and regressing ones. Disappeared tumors were separately calculated. The tumors were considered to be progressing, if the tumor volume grew more than 8-fold during the 5 weeks dosing period, and regressing if the tumor volume decreased to one fourth or less from the volume in the beginning. If tumor volume changed less or remained unchanged, the tumors were considered to be stable.

Where [5] appears, read: Without estradiol (E2), maximal growth stimulus at any concentration, 4 days.

Consider `OCC(O)COc1ccc(/C(=C(/CCCl)c2ccccc2)c2ccc(Cl)cc2)cc1` (stereo not shown) [No. 10, (E)-3-{4-[4-Chloro-1-(4-chlorophenyl)-2-phenyl-but-1-enyl]phenoxy}propane-1,2-diol], for which the cytotoxicity at 10 µM in series [1] (With estradiol (E2)) was found to be 35%; in series [1] (Without estradiol (E2)), 7%. Further, in series [1] (With estradiol (E2), 1 μM), the inhibition at 1 µM was determined as 0%. For the same compound, in series [1] (setting [5]), the Emax came to 34%. The “Estrogenic and antiestrogenic action (in words)” value in series [2] was “weak estrogenic and no antiestrogenic action”.
Turning to `OCCOc1cccc(/C(=C(/CCCl)c2ccccc2)c2ccccc2)c1` [No. 18, (Z)-2-[3-(4-Chloro-1,2-diphenyl-but-1-enyl)phenoxy]ethanol], the Emax in series [1] (setting [5]) was determined as 30%. Also, in series [2], the “Estrogenic and antiestrogenic action (in words)” value was “weak estrogenic and no antiestrogenic action”.
On to `CN(C)CCOc1ccc(/C(=C(/CCCl)c2ccc(F)cc2)c2ccccc2)cc1` [No. 25, (Z)-(2-{4-[4-Chloro-2-(4-fluorophenyl)-1-phenylbut-1-enyl]phenoxy}ethyl)-dimethylamine], for which, in series [2], the “Estrogenic and antiestrogenic action (in words)” value was “weak estrogenic and no antiestrogenic action”.
In the case of `COc1ccccc1/C(CCCl)=C(/c1ccccc1)c1ccc(OCCN2CCCCC2)cc1` [No. 30, (Z)-1-(2-{4-[4-Chloro-2-(2-methoxyphenyl)-1-phenylbut-1-enyl]phenoxy}-ethyl)piperidine], the values for the cytotoxicity at 10 µM in series [1] (With estradiol (E2)) and in series [1] (Without estradiol (E2)) were 92% and 91%, respectively. For the same compound, the inhibition at 1 µM in series [1] (With estradiol (E2), 1 μM) stood at 4%. Moreover, the Emax in series [1] (setting [5]) amounted to 5%.
On to `CN(C)CCSc1ccc(/C(=C(/CCCl)c2ccccc2)c2ccccc2)cc1` [No. 32, (Z)-1-[4-(2-Dimethylaminoethylsulfanyl)phenyl]-1,2-diphenyl-4-chloro-but-1-ene], for which the cytotoxicity at 10 µM in series [1] (With estradiol (E2)) was determined as 90%; in series [1] (Without estradiol (E2)), 86%. In addition, the inhibition at 1 µM in series [1] (With estradiol (E2), 1 μM) stood at 0%. For the same compound, in series [1] (setting [5]), the Emax stood at 11%. Also, the “Estrogenic and antiestrogenic action (in words)” value in series [2] was “weak estrogenic and no antiestrogenic action”.
As to `CN(C)CCOc1cccc(/C(=C(/CCCl)c2ccccc2)c2ccccc2)c1` [No. 33, (Z)-{2-[3-(4-Chloro-1,2-diphenylbut-1-enyl)phenoxy]ethyl}dimethylamine], in series [1] (setting [5]), the Emax turned out to be 20%. The “Cytotoxic action (in words)” value in series [1] (Table 2) is given as “weak”. The “Effect on cholesterol (in words)” value in series [3] was “decrease cholesterol”.
As to `OCCCOc1ccc(/C(=C(/CCCl)c2ccccc2)c2ccccc2)cc1` [No. 35, (Z)-3-[4-(4-Chloro-1,2-diphenylbut-1-enyl)phenoxy]propan-1-ol], the Emax in series [1] (setting [5]) came out at 45%.
Consider `OCCSc1ccc(/C(=C(/CCCl)c2ccccc2)c2ccccc2)cc1` [No. 36, (Z)-2-[4-(4-Chloro-1,2-diphenyl-but-1-enyl)-phenylsulfanyl]ethanol], for which the cytotoxicity at 10 µM in series [1] (With estradiol (E2)) turned out to be 37%; in series [1] (Without estradiol (E2)), 17%. The inhibition at 1 µM in series [1] (With estradiol (E2), 1 μM) was determined as 13%. The Emax in series [1] (setting [5]) was found to be 8%. Moreover, the “Estrogenic and antiestrogenic action (in words)” value in series [2] was “weak estrogenic and no antiestrogenic action”.
`ClCC/C(=C(\c1ccccc1)c1ccc(OCCN2CCCCC2)cc1)c1ccccc1Cl` [No. 38, (Z)-1-(2-{4-[4-Chloro-2-(2-chlorophenyl)-1-phenylbut-1-enyl]phenoxy}-ethyl)piperidine]: the cytotoxicity at 10 µM worked out at 100% in series [1] (With estradiol (E2)) and 99% in series [1] (Without estradiol (E2)). Moreover, the inhibition at 1 µM in series [1] (With estradiol (E2), 1 μM) is 68%. Moreover, the Emax in series [1] (setting [5]) came out at 0%.
Regarding `Oc1cccc(/C(=C(\CCCl)c2ccccc2)c2ccc(OCCn3ccnc3)cc2)c1` [No. 39, (E)-3-{4-Chloro-1-[4-(2-imidazol-1-yl-ethoxy)phenyl]-2-phenyl-but-1-enyl}-phenol], the “Killing of MCF-7 cells at the highest investigated concentration (in words)” value in series [1] is given as “kill MCF-7 cells (human breast cancer cells) effectively”. Also, the cytotoxicity at 10 µM turned out to be 78% in series [1] (With estradiol (E2)) and 68% in series [1] (Without estradiol (E2)). Also, the inhibition at 1 µM in series [1] (With estradiol (E2), 1 μM) was 17%. Moreover, the Emax in series [1] (setting [5]) turned out to be 0%.
On the same counts, the results for `Oc1cccc(/C(=C(/CCCl)c2ccccc2)c2ccc(OCCn3ccnc3)cc2)c1` [No. 40, (Z)-3-{4-Chloro-1-[4-(2-imidazol-1-yl-ethoxy)phenyl]-2-phenyl-but-1-enyl}-phenol] are “kill MCF-7 cells (human breast cancer cells) effectively”, 46%, 63%, 3% and 0%.
Consider `OCCNc1ccc(/C(=C(/CCCl)c2ccccc2)c2ccccc2)cc1` [No. 41, (Z)-2-[4-(4-Chloro-1,2-diphenyl-but-1-enyl)phenylamino]ethanol], for which the values for the cytotoxicity at 10 µM in series [1] (With estradiol (E2)) and in series [1] (Without estradiol (E2)) were 47% and 0%, respectively. The inhibition at 1 µM in series [1] (With estradiol (E2), 1 μM) was found to be 10%. The Emax in series [1] (setting [5]) was determined as 54%.
Regarding `C#CCN(C)CCOc1ccc(/C(=C(/CCCl)c2ccccc2)c2ccccc2)cc1` [No. 44, (Z)-{2-[4-(4-Chloro-1,2-diphenylbut-1-enyl)phenoxy]ethyl}-methylprop-2-ynylamine], the cytotoxicity at 10 µM in series [1] (With estradiol (E2)) was 95%; in series [1] (Without estradiol (E2)), 78%. Moreover, the inhibition at 1 µM in series [1] (With estradiol (E2), 1 μM) came to 8%. Moreover, in series [1] (setting [5]), the Emax amounted to 24%. Moreover, the “Estrogenic and antiestrogenic action (in words)” value in series [2] was “weak estrogenic and no antiestrogenic action”.
Regarding `CCC(O)(CC)COc1ccc(/C(=C(/CCCl)c2ccccc2)c2ccccc2)cc1` [No. 45, (Z)-3-[4-(4-Chloro-1,2-diphenylbut-1-enyl)phenoxymethyl]pentan-3-ol], the cytotoxicity at 10 µM came to 19% in series [1] (With estradiol (E2)) and 6% in series [1] (Without estradiol (E2)). The inhibition at 1 µM in series [1] (With estradiol (E2), 1 μM) was 3%. The Emax in series [1] (setting [5]) was 15%.
The like results for `CCC(CO)Oc1ccc(/C(=C(/CCCl)c2ccccc2)c2ccccc2)cc1` (stereo not shown) [No. 46, (Z)-2-[4-(4-Chloro-1,2-diphenylbut-1-enyl)phenoxy]butan-1-ol] were, in that order, 51%, 15%, 23% and 18%.
Take `CC/C(=C(\c1ccccc1)c1ccc(OCCN(C)C)cc1)c1ccccc1` [Tamoxifen, reference compound]: in series [4], the “Disappeared tumors (per cent of total tumor number)” value stood at 0%, the “Growing tumors (per cent of total tumor number)” value is given as 36%, the “Regressing tumors (per cent of total tumor number)” value was determined as 8% and the “Stable tumors (per cent of total tumor number)” value stood at 56%.
The like results for `CN(C)CCOc1ccc(/C(=C(/CCCl)c2ccccc2)c2ccccc2)cc1` [Toremifene, reference compound] were, in that order, 10%, 31%, 11% and 51%.
On to “E-3-(4-Chloro-1-{4-[2-(2-hydroxyethoxy)ethoxy]phenyl}-2-phenylbut-1-enyl)phenol [Example 11]”, for which the “Antagonism at 1 μM (% of full antagonism)” value in series [1] (With estradiol (E2), 1 μM) was 0 % of full antagonism. Moreover, the figures for the “Maximal Cell Kill (% fraction of dead cells)” value in series [1] (With estradiol (E2)) and in series [1] (Without estradiol (E2)) were 55 % fraction of dead cells and 26 % fraction of dead cells, respectively. For the same compound, in series [1] (setting [5]), the “Maximal Agonism (% of E2)” value is 14 % of E2. For the same compound, in series [2], the “Estrogenic and antiestrogenic action (in words)” value is “weak estrogenic and no antiestrogenic action”.
